This is an account of results in US20150252048A1, “SUBSTITUTED N-(3-PYRIMIDIN-4-YL)PHENYL)ACRYLAMIDE ANALOGS AS TYROSINE RECEPTOR KINASE BTK INHIBITORS” (UNIVERSITY OF UTAH RESEARCH FOUNDATION, priority 2012, published 2015).

Structures are written as SMILES. Where two headings read alike, the source gives them in different places. Bounds are passed on as bounds.

One data set can be described thus: Pharmacokinetics in rat. It counts as in vivo, male Sprague Dawley rats. As to the method: The pharmacokinetic behavior of a representative disclosed compound, compound 3 (N-(3-(6-((3-morpholinophenyl)amino)-1H-pyrazolo[3,4-d]pyrimidin-4-yl)phenyl)acrylamide), which corresponds to compound 3 in Table I, was also evaluated in rat. A study was conducted using three male Sprague Dawley rats in each group as shown below:
The solution formulations were prepared as follows: (A) intravenous route (“i.v.”): a weighed quantity of 3 (10.45 mg) was transferred into a 10 mL clean glass vial. To this 0.231 mL of ethanol (4.5%) was added, vortexed and sonicated. To this 1.028 mL of propylene glycol (20%) was added, vortexed and sonicated. 1.543 mL of PEG400 (30%) was added, vortexed and sonicated. Finally 2.340 mL of water (45.5%) was added gradually, vortexed and sonicated to make a solution of 2 mg/mL concentration. The final solution was filtered using syringe filter (0.22 μm).; and (B) a weighed quantity of SC-1344 (27.43 mg) was transferred into a 10 mL clean glass vial. To this 0.304 mL of ethanol (4.5%) was added, vortexed and sonicated. To this 1.350 mL of propylene glycol (20%) was added, vortexed and sonicated. 2.024 mL of PEG400 (30%) was added, vortexed and sonicated. Finally 3.070 mL of water (45.5%) was added gradually, vortexed and sonicated to make a solution of 4 mg/mL concentration. The final solution was filtered using syringe filter (0.22 μm).
Bioanalysis was performed using fit-for-purpose LC-MS/MS method for the quantification of 3 in rat plasma samples. The calibration curve (CC) for the method consisted of nine non-zero calibration standards along with a double blank and zero standard samples. Study samples were analyzed along with two sets of quality control samples (6 QC samples; low, medium and high QC samples in triplicate). Briefly, the LC-MS/MS method used the following parameters: a) gradient mobile phase (Pump A: 0.1% Formic acid in water; Pump B: 100% methanol); b) XBridge C8, 50×4.6 mm, 3.5μ (Waters) column; c) 10 μL injection volume; d) 1.00 mL/min flow rate; e) 3.50 min run time; f) 10° C. sample cooler temperature; and g) 40° C. column oven temperature. The sample calibration curve was 1.02-1023 ng/mL, with an internal standard (telmisartan) at 0.2 μg/mL. Briefly, biological samples were prepared as follows: 50 μL of sample was mixed with 150 μL of internal standard, then mixture was vortexed for 5 min at 800 rpm, followed by centrifugation at 4000 rpm for 5 min; 150 μL of the sample supernatant was transferred into a separate tube and diluted with 75 μL of methanol: water (1:1), followed by injection into LC/MS/MS.
Plasma pharmacokinetic parameters were calculated using the non-compartmental analysis tool of Phoenix software (Version 6.3) and were determined from individual animals in each group. The area under the plasma concentration-time curve (AUC0-t and AUCinf), elimination half-life (T1/2), clearance (CL), volume of distribution (Vss) and Mean residence time (MRT) were calculated from intravenous group. The peak plasma concentration (Cmax), time to achieve peak plasma concentration (Tmax), AUC0-t and AUCinf, and absolute oral bioavailability (F) were calculated from the oral group.
The mean plasma concentration-time profiles are shown in FIGS. 10 and 11, i.e. the mean concentration values of the individual values obtained from each rat in the study group at the indicated time points.

The target in the next data set is T1, Cytochrome P450 2D6 (Homo sapiens, UniProt P10635).
T1 construct: purchased Invitrogen
T1 sequence (P10635 whole entry): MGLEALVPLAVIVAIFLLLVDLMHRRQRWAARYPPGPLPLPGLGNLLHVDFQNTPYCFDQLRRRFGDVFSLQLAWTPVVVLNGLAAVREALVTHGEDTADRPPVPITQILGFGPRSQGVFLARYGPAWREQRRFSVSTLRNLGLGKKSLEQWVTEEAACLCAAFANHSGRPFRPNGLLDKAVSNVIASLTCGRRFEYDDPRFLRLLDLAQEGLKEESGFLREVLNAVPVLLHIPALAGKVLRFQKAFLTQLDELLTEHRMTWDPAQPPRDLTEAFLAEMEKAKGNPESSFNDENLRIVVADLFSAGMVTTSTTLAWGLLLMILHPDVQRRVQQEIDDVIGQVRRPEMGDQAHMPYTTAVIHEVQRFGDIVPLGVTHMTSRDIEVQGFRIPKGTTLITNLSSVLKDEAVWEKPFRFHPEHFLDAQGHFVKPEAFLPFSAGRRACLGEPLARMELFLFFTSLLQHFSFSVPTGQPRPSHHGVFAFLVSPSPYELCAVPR
Briefly: Cytochrome P450 inhibition (P450 BACULOSOMES, Vivid substrates). It counts as in vitro ADME. The following applies: 10-point titration, duplicate; read-out: CYP Activity 2D6 IC50. The protocol: (§1) A number of ADME properties were determined for a representative disclosed compound, compound 3 (N-(3-(6-((3-morpholinophenyl)amino)-1H-pyrazolo[3,4-d]pyrimidin-4-yl)phenyl)acrylamide), which corresponds to compound 3 in Table I. Drug inhibition of cytochrome P450 enzymes is a common cause of drug-drug intereaction issues in the clinic. The compound was tested in assays for commonly screened Cytochrome P450s, specifically the 1A2, 2C9, 2C19, 2D6, and 3A4 isoforms. The IC50 determinations were performed in duplicate using 10-point titrations of test compound using Invitrogen P450 BACULOSOMES® reagents and Vivid® CyP450 Screening substrates.

A further data set has as its target T2, Cytochrome P450 2C9 (Homo sapiens, UniProt P11712).
T2 construct: purchased Invitrogen
Described as above. It counts as in vitro ADME. The conditions noted are these: 10-point titration, duplicate; read-out: CYP Activity 2C9 IC50. The protocol: as §1

The target of a further data set is T3, Cytochrome P450 2C19 (Homo sapiens, UniProt P33261).
T3 construct: purchased Invitrogen
T3 sequence (P33261 whole entry): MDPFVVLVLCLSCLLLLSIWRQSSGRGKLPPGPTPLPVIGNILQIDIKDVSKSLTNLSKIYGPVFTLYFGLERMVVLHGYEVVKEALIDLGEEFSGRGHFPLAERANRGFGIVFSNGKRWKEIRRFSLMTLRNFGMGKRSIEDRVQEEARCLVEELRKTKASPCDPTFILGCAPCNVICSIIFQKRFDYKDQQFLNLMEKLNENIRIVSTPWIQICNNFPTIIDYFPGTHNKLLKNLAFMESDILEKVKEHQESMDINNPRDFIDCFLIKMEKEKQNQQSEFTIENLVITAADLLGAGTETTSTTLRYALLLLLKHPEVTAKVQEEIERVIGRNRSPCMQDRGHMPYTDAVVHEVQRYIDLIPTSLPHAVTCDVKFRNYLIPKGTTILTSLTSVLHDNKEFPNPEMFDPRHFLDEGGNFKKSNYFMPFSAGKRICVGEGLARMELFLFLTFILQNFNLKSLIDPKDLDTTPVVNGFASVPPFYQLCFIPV
The data set is described as above. It counts as in vitro ADME. The conditions noted are these: 10-point titration, duplicate; read-out: CYP Activity 2C19 IC50. The protocol: as §1

The next data set has as its target T4, Cytochrome P450 3A4 (Homo sapiens, UniProt P08684).
T4 construct: purchased Invitrogen
The description is as above. It counts as in vitro ADME. As to the method:
as §1

Another data set concerns the target T5, Cytochrome P450 1A2 (Homo sapiens, UniProt P05177).
T5 construct: purchased Invitrogen
T5 sequence (P05177 1-516): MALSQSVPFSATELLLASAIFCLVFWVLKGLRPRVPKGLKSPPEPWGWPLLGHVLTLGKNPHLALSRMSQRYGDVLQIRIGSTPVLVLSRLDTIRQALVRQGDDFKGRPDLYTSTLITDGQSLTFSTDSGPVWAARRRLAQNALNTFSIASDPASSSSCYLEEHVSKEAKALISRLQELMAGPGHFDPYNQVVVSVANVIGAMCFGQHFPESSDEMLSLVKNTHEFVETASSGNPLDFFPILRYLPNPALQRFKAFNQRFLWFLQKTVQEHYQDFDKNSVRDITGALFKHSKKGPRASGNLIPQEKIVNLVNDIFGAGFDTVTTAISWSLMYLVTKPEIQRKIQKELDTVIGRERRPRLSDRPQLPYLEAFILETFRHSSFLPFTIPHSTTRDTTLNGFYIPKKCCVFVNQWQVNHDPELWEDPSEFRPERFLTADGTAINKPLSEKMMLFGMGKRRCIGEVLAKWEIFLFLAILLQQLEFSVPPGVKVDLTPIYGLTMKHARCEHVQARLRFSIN
The data set is described as above. The conditions noted are these: 10-point titration, duplicate; read-out: CYP Activity 1A2 IC50. In kind it is in vitro ADME. The protocol:
as §1

T4 sequence (P08684 whole entry): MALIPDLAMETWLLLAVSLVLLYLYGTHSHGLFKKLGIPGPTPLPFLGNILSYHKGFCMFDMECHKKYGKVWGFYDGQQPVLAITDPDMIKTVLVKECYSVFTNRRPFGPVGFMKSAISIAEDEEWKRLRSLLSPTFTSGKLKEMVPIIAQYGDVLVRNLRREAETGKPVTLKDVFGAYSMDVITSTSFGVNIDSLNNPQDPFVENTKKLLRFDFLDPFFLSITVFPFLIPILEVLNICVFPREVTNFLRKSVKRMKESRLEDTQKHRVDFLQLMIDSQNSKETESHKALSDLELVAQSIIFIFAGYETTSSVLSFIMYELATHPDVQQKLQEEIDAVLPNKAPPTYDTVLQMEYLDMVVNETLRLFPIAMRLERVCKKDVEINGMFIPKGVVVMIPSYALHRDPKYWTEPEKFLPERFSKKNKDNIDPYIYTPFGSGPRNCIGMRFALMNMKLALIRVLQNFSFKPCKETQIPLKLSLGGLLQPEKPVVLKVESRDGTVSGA
T2 sequence (P11712 whole entry): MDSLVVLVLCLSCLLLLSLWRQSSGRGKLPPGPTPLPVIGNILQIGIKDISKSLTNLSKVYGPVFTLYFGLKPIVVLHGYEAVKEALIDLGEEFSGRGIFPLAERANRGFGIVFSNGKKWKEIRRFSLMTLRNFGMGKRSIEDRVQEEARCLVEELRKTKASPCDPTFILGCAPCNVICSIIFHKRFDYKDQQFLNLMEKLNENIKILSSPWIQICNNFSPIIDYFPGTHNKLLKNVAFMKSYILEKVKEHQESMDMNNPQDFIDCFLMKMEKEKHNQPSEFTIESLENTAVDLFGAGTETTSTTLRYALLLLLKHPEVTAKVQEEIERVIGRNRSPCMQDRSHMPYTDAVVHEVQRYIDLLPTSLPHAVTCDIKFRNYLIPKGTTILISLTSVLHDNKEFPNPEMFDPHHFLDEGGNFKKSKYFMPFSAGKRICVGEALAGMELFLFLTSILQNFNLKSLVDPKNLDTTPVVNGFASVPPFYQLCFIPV

As to `C=CC(=O)Nc1cccc(-c2nc(Nc3cccc(N4CCOCC4)c3)nc3[nH]ncc23)c1` [Compound 3, N-(3-(6-((3-morpholinophenyl)amino)-1H-pyrazolo[3,4-d]pyrimidin-4-yl)phenyl)acrylamide], the AUC(0-t) was determined as 1063 ng·h/mL in the data set “Pharmacokinetics in rat” (IV 5 mg/kg, solution, 5 mg/kg) and 104 ng·h/mL in “Pharmacokinetics in rat” (male, Sprague-Dawley, plasma, PO 20 mg/kg, solution, read-out: AUC0-t). In “Pharmacokinetics in rat” (IV 5 mg/kg, solution, 5 mg/kg), this compound showed a CL of 79.7 mL/min/kg. The compound also yielded a T1/2 in “Pharmacokinetics in rat” (IV 5 mg/kg, solution, 5 mg/kg) of 2.71 h. The same compound returned a Vss in the data set “Pharmacokinetics in rat” (IV 5 mg/kg, solution, 5 mg/kg) of 7.91 L/kg. The “F (absolute oral bioavailability)” value in the data set “Pharmacokinetics in rat” (PO 20 mg/kg vs IV 5 mg/kg, AUC0-t and nominal doses used) stood at 2.44%. Besides, the Cmax is 23.1 ng/mL in the data set “Pharmacokinetics in rat” (PO 20 mg/kg, solution, 20 mg/kg) and 1840 ng/mL in the data set “Pharmacokinetics in rat” (male, Sprague Dawley, plasma, IV 5 mg/kg, solution, read-out: Cmax (back-extrapolated concentration)). In addition, the AUC(0-inf) in the data set “Pharmacokinetics in rat” (male, Sprague Dawley, plasma, IV 5 mg/kg, solution) was 1070 ng·h/mL; in “Pharmacokinetics in rat” (male, Sprague Dawley, plasma, PO 20 mg/kg, solution, one animal data), 254 ng·h/mL. Besides, the Tmax in the data set “Pharmacokinetics in rat” (male, Sprague Dawley, plasma, PO 20 mg/kg, solution, read-out: Tmax (median)) was determined as 2 h. In addition, the IC50 on Cytochrome P450 2D6 was at least 10000 nM; at Cytochrome P450 2C9, 2170 nM; on Cytochrome P450 2C19, 2630 nM; at Cytochrome P450 3A4 (BOMCC substrate, read-out: CYP Activity 3A4/BOMCC IC50), 670 nM; on Cytochrome P450 3A4 (DBOMF substrate, read-out: CYP Activity 3A4/DBOMF IC50) it was 2050 nM; on Cytochrome P450 1A2 it was at least 10000 nM.
